# Results published in patent publication EP1373298B1, “A COMPOSITION CONTAINING NOVEL COMPOUND CORNICULATONIN HAVING ANTIFUNGI PROPERTIES AND A PROCESS FOR PREPARING THE SAME” (COUNCIL OF SCIENTIFIC AND INDUSTRIAL RESEARCH, priority 2001, dated 2002).
# Key:
# Cladosporium cucumerinum = conditions: TLC bioassay; cited from earlier work
# T. violaceum [1] = test: Minimum inhibitory concentration (MIC), disk diffusion method; format: cell-based; conditions: disks of 50 to 3.12 µg, 42-120 hrs at room temperature
# From the text: (§1) Agar: Czapek Malt Agar (Himedia laboratories Ltd.) was used for culturing Microsporum gypseum, Trichophyton mentagrophytes T. tonsurans, T. violaceum, Aspergillus fresenii and A. niger. Mycological Agar (Himedia Laboratories Ltd) was used for Cryptococcus neoformans and Candida sp.
# (§2) Pathogenic fungal strains of yeast and filamentous fungi identified and gifted by Dr. Savio from Goa Medical College, Bambolim, were used for the test. Strains of Aspergillus were isolated from the infected wheat bread with sterile needle; fungal material was surface sterilized using 0.5 % sodium hypochlorite for 2-3 minutes, and then washed with small brush in sterile distilled water. Washed fungal material was transferred using needle into the sterile culture media and subcultured for purification by following standard methods (Collins and Taylor, 1967). Taxonomic identification was done by using various standard keys (Ainswort et al., 1973; Onion et al., 1981) and identification confirmed by Alka Pandey of Agarkar Research Institute, Pune.
# (§3) Yeast strains (Candida sp. and Cryptococcus neoformans) were maintained by single colony transfer on mycological agar (Himedia Laboratories Ltd) at the refrigeration temperature (3-5°C). Filamentous fungi were maintained on Czapek Malt agar slants at refrigeration temperature (3-5°C), until needed for the assay.
# (§4) Innocula were adjusted to 100 µl of Cryptococcus neoformans, Candida sp., Microsporum gypseum, Trichophyton tonsurans, T. violaceum and Trichophyton mentagrophytes and spread on the appropriate plates, excess moisture was allowed to absorb for 10 minutes before applying disks. Immediately prior to the assay, the testing compound of formula 1, object of the present invention, the reference compounds amphotericin B and nystatin, potency approx:750µ/mg and 4800USPunit/mg respectively, were reconstituted in triplicate in dimethylsulfoxide. […] From the stock solution 10 µl were spread on the paper disk so as to obtain final concentration of 50 µg disc^-1, 25µg disc^-1, 12.5 µg disc^-1, 6.25 µg disc^-1 and 3.12 µg disk^-1. Disks were dried at reduced pressure in the dessicator, at 28-29°C and applied to inoculated plates.
# (§5) In testing, the compound of formula 1 was reconstituted in dimethylsulfoxide (DMSO) immediately prior to all assays. Dimethylsulfoxide (DMSO) alone had no detectable inhibitory effect on any of the tested microbes. Compound of formula 1 was tested against a diverse collection of yeast and filamentous fungi, some of which are resistant to the reference compound nystatin. Filamentous fungi were nystatin resistant.
# [2] = tested on: Trichophyton mentagrophytes; test: as above; format: cell-based; conditions: disks of 50 to 3.12 µg, 42-120 hrs at room temperature
# From the text: as §1, §2, §3, §4, §5
# Microsporum gypseum [3] = test: as above; format: cell-based; conditions: disks of 50 to 3.12 µg, 42-120 hrs at room temperature
# From the text: as §1, §2, §3, §4, §5
# T. tonsurans [4] = test: as above; format: cell-based; conditions: disks of 50 to 3.12 µg, 42-120 hrs at room temperature
# From the text: as §1, §2, §3, §4, §5
# Cryptococcus neoformans [5] = test: as above; format: cell-based; conditions: disks of 50 to 3.12 µg, 42-120 hrs at room temperature
# From the text: as §1, §2, §3, §4, §5
# Candida sp. [6] = test: as above; format: cell-based; conditions: disks of 50 to 3.12 µg, 42-120 hrs at room temperature
# From the text: as §1, §2, §3, §4, §5
# Aspergillus fresenii [7] = test: as above; format: cell-based; conditions: disks of 50 to 3.12 µg, 42-120 hrs at room temperature
# From the text: as §1, §2, §3, §4, §5
# T. violaceum [8] = test: Disk diffusion assay, zone of inhibition; format: cell-based; conditions: 250 µg. disk^-1, incubated 42-120 hrs at room temperature
# From the text: as §1, §2, §3
# (§6) Disk diffusion assay: The disk diffusion assay was used for screening of antifungal activity of the compound. The stock solution for the test was prepared by dissolving 5 mg of the compound of formula 1 in 200 µl dimethylsulphoxide (DMSO). From the stock solution 10 µl were spread on the paper disc so as to obtain the final concentration of 250 µg disk^-1. Control disk was applied reconstituted with only dimethylsulphoxide and were dried at 28-29°C. Completely dried disk was applied to innoculated plates. The plates were incubated at room temperature for the period between 42- 120 hrs. to obtain maximum growth in the culture media. The zones of inhibition around the disks were measured.
# [9] = tested on: Trichophyton mentagrophytes; test: Disk diffusion assay, zone of inhibition; format: cell-based; conditions: 250 µg. disk^-1, incubated 42-120 hrs at room temperature
# From the text: as §1, §2, §3, §6
# Microsporum gypseum [10] = test: Disk diffusion assay, zone of inhibition; format: cell-based; conditions: 250 µg. disk^-1, incubated 42-120 hrs at room temperature
# From the text: as §1, §2, §3, §6
# T. tonsurans [11] = test: Disk diffusion assay, zone of inhibition; format: cell-based; conditions: 250 µg. disk^-1, incubated 42-120 hrs at room temperature
# From the text: as §1, §2, §3, §6
# Cryptococcus neoformans [12] = test: Disk diffusion assay, zone of inhibition; format: cell-based; conditions: 250 µg. disk^-1, incubated 42-120 hrs at room temperature
# From the text: as §1, §2, §3, §6
# Candida sp. [13] = test: Disk diffusion assay, zone of inhibition; format: cell-based; conditions: 250 µg. disk^-1, incubated 42-120 hrs at room temperature
# From the text: as §1, §2, §3, §6
# Aspergillus niger [14] = test: Disk diffusion assay, zone of inhibition; format: cell-based; conditions: 250 µg. disk^-1, incubated 42-120 hrs at room temperature
# From the text: as §1, §2, §3, §6
# Aspergillus fresenii [15] = test: Disk diffusion assay, zone of inhibition; format: cell-based; conditions: 250 µg. disk^-1, incubated 42-120 hrs at room temperature
# From the text: as §1, §2, §3, §6
# Aspergillus niger [16] = test: Minimum inhibitory concentration (MIC), disk diffusion method; format: cell-based; conditions: disks of 50 to 3.12 µg, 42-120 hrs at room temperature
# From the text: as §1, §2, §3, §4, §5
Compound,antifungal at (Cladosporium cucumerinum),MIC (T. violaceum [1]),MIC [2],MIC (Microsporum gypseum [3]),MIC (T. tonsurans [4]),MIC (Cryptococcus neoformans [5]),MIC (Candida sp. [6]),MIC (Aspergillus fresenii [7]),zones of inhibition (T. violaceum [8]),zones of inhibition [9],zones of inhibition (Microsporum gypseum [10]),zones of inhibition (T. tonsurans [11]),zones of inhibition (Cryptococcus neoformans [12]),zones of inhibition (Candida sp. [13]),zones of inhibition (Aspergillus niger [14]),zones of inhibition (Aspergillus fresenii [15]),MIC (Aspergillus niger [16])
Sakurasaponin,1 µg,,,,,,,,,,,,,,,,
"3-O-α-rhamnopyranosyl-rhamnopyranosyl-glucopyranosyl-glucoronopyranosylgluco-pyrano side 16 α-hydroxy-13, 28-epoxy oleanane [Compound 1]",,25 - 50 µg. disk^-1,25 - 50 µg. disk^-1,12.5 - 25 µg. disk^-1,12.5 - 25 µg. disk^-1,6.25 -12.5 µg. disk^-1,6.25 -12.5 µg. disk^-1,25 -50 µg. disk^-1,13 mm,12 mm,14 mm,14 mm,9 mm,9 mm,4 mm,10 mm,
C[C@@H]1[C@H](O)[C@@H](C)/C=C/C=C/CC/C=C/C=C/C=C/C=C/C(O[C@H]2O[C@H](C)[C@@H](O)[C@H](N)[C@@H]2O)CC2O[C@](O)(CC(O)C(O)CCC(O)CC(O)CC(O)CC(=O)O[C@H]1C)CC(O)C2C(=O)O (some centres unmarked) [Nystatin],,,,,,6.25 - 12.5 µg. disk^-1,6.25 -12.5 µg. disk^-1,,,,,,,,,,
"C[C@@H]1[C@H](O)[C@@H](C)/C=C/C=C/C=C/C=C/C=C/C=C/C=C/[C@H](O[C@@H]2O[C@H](C)[C@@H](O)[C@H](N)[C@@H]2O)C[C@@H]2O[C@](O)(C[C@@H](O)C[C@@H](O)[C@H](O)CC[C@@H](O)C[C@@H](O)CC(=O)O[C@H]1C)C[C@H](O)[C@H]2C(=O)O [Amphotericin B, reference compound]",,6.25 -12.5 µg. disk^-1,6.25 - 12.5 µg. disk^-1,6.25 -12.5 µg. disk^-1,6.25 - 12.5 µg. disk^-1,3.12 - 6.25 µg. disk^-1,3.12 - 6.25 µg. disk^-1,12.5 -25 µg. disk^-1,,,,,,,,,12.5 -25 µg. disk^-1
